Laboratory results: the NIST ThermoML archive (doi:10.1007/s10765-011-1086-8)
Numbers after ± are expanded uncertainties. One block for each molecule: values may come before it.

Legend:
[1] = relative permittivity at various frequencies (dimensionless); settings: 303.15 K, 101 kPa, Liquid, Frequency=1 MHz
[2] = relative permittivity at various frequencies (dimensionless); xn = mol fraction of the nth substance listed; settings: 303.15 K, 101 kPa, Liquid, Frequency=1 MHz, Parallel plate capacitor

relative permittivity ([1]; Parallel plate capacitor): 2.26 ± 0.014
Structure (SMILES): C1COCCO1 [1,4-dioxane]

relative permittivity [1]: 46.05 ± 0.28
Structure (SMILES): C[S+](C)[O-] [dimethyl sulfoxide]

relative permittivity ([1]; Parallel plate capacitor): 106.14 ± 0.64
Structure (SMILES): NC=O [formamide]

relative permittivity ([1]; Parallel plate capacitor): 36.55 ± 0.22
Structure (SMILES): CN(C)C=O [dimethylformamide]

The remaining lines, values behind:

Structure (SMILES): O [water]
relative permittivity ([1]; Parallel plate capacitor): 76.53 ± 0.46

Structure (SMILES): NC=O [formamide] + CN(C)C=O
relative permittivity ([2]; x1 = 0.122): 40.58 ± 0.24
relative permittivity ([2]; x1 = 0.23): 45 ± 0.27
relative permittivity ([2]; x1 = 0.327): 49.26 ± 0.3
relative permittivity ([2]; x1 = 0.414): 53.6 ± 0.32
relative permittivity ([2]; x1 = 0.493): 58.17 ± 0.35
relative permittivity ([2]; x1 = 0.5): 58.5 ± 0.35
relative permittivity ([2]; x1 = 0.565): 63.22 ± 0.38
relative permittivity ([2]; x1 = 0.63): 67.66 ± 0.41
relative permittivity ([2]; x1 = 0.69): 72.58 ± 0.44
relative permittivity ([2]; x1 = 0.745): 77.4 ± 0.46
relative permittivity ([2]; x1 = 0.796): 82.52 ± 0.5
relative permittivity ([2]; x1 = 0.843): 86.95 ± 0.52
relative permittivity ([2]; x1 = 0.886): 91.84 ± 0.55
relative permittivity ([2]; x1 = 0.927): 96.1 ± 0.58
relative permittivity ([2]; x1 = 0.965): 101.77 ± 0.61
relative permittivity ([2]; x1 = 1): 106.14 ± 0.64

Structure (SMILES): CN(C)C=O [dimethylformamide] + NC=O
relative permittivity ([2]; x2 = 0): 36.55 ± 0.22

Structure (SMILES): NC=O [formamide] + NCCO
relative permittivity ([2]; x1 = 0.144): 36.91 ± 0.22
relative permittivity ([2]; x1 = 0.275): 44.61 ± 0.27
relative permittivity ([2]; x1 = 0.394): 52.04 ± 0.31
relative permittivity ([2]; x1 = 0.5): 59.52 ± 0.36
relative permittivity ([2]; x1 = 0.503): 59.14 ± 0.35
relative permittivity ([2]; x1 = 0.603): 66.34 ± 0.4
relative permittivity ([2]; x1 = 0.695): 74.02 ± 0.44
relative permittivity ([2]; x1 = 0.78): 81.77 ± 0.49
relative permittivity ([2]; x1 = 0.859): 90.12 ± 0.54
relative permittivity ([2]; x1 = 0.932): 97.77 ± 0.59
relative permittivity ([2]; x1 = 1): 106.14 ± 0.64
